Reference: PubChem BioAssay (NCI)
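The compound was tested at five concentrations on cells cultured in 96-well plates, with a 48-hour exposure period. At the GI50, growth is halved. The concentration for full growth arrest is given as TGI.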

Experiments:
Assay in all cases: growth of human tumour cells (NCI), 48 h
[1] = tested on: LOX IMVI melanoma
[2] = tested on: RXF 393 renal
[3] = tested on: OVCAR-3 ovarian
[4] = tested on: MALME-3M melanoma
[5] = tested on: PC-3 prostate
[6] = tested on: SN12C renal
[7] = tested on: SK-MEL-2 melanoma
[8] = tested on: KM12 colon
[9] = tested on: MCF7 breast
[10] = tested on: K-562 leukemia
[11] = tested on: HL-60(TB) leukemia
[12] = tested on: HOP-62 NSCLC
[13] = tested on: EKVX NSCLC
[14] = tested on: SK-MEL-5 melanoma
[15] = tested on: A549 NSCLC
[16] = tested on: NCI-H522 lung
[17] = tested on: OVCAR-4 ovarian
[18] = tested on: HCT-15 colon
[19] = tested on: MDA-N
[20] = tested on: UACC-62 melanoma
[21] = tested on: OVCAR-5 ovarian
[22] = tested on: SR leukemia
[23] = tested on: OVCAR-8 ovarian
[24] = tested on: 786-0 renal
[25] = tested on: UACC-257 melanoma
[26] = tested on: HCT-116 colon
[27] = tested on: NCI-H460 lung
[28] = tested on: COLO 205 colon
[29] = tested on: SNB-19 CNS
[30] = tested on: HCC-2998 colon
[31] = tested on: U251 CNS
[32] = tested on: CCRF-CEM leukemia
[33] = tested on: CAKI-1 renal
[34] = tested on: SK-OV-3 ovarian
[35] = tested on: ACHN renal
[36] = tested on: RPMI-8226 leukemia
[37] = tested on: NCI/ADR-RES ovarian
[38] = tested on: M14 melanoma
[39] = tested on: SF-539 CNS
[40] = tested on: TK-10 renal
[41] = tested on: NCI-H226 lung
[42] = tested on: SK-MEL-28 melanoma
[43] = tested on: HT29 colon
[44] = tested on: HS 578T breast
[45] = tested on: A498 renal
[46] = tested on: T-47D breast
[47] = tested on: SW-620 colon
[48] = tested on: SF-268 CNS
[49] = tested on: IGROV1 ovarian
[50] = tested on: DU-145 prostate
[51] = tested on: NCI-H23 lung
[52] = tested on: MDA-MB-231 breast
[53] = tested on: MDA-MB-435
[54] = tested on: BT-549 breast
[55] = tested on: MOLT-4 leukemia
[56] = tested on: SF-295 CNS

Compound: CC(=N\O)/C(C)=N/O.CC(=N\O)/C(C)=N/O.[Pd]
- GI50 [1]: 1.58 µM
- TGI [1]: 3.16 µM
- GI50 [2]: 3.42 µM
- TGI [2]: 7.42 µM
- GI50 [3]: 3.83 µM
- TGI [3]: > 10 µM
- GI50 [4]: 1.9 µM
- TGI [4]: 4.53 µM
- GI50 [5]: 4.73 µM
- TGI [5]: > 10 µM
- GI50 [6]: 8.65 µM
- TGI [6]: > 10 µM
- GI50 [7]: 3.31 µM
- TGI [7]: 8.67 µM
- GI50 [8]: 2.79 µM
- TGI [8]: 8.01 µM
- GI50 [9]: 4.98 µM
- TGI [9]: > 10 µM
- GI50 [10]: > 10 µM
- TGI [10]: > 10 µM
- GI50 [11]: 4 µM
- TGI [11]: > 10 µM
- GI50 [12]: 5.62 µM
- TGI [12]: > 10 µM
- GI50 [13]: 6.71 µM
- TGI [13]: > 10 µM
- GI50 [14]: 1.81 µM
- TGI [14]: 4.04 µM
- GI50 [15]: 7.03 µM
- TGI [15]: > 10 µM
- GI50 [16]: 2.08 µM
- TGI [16]: 5.03 µM
- GI50 [17]: 4.72 µM
- TGI [17]: > 10 µM
- GI50 [18]: 2.44 µM
- TGI [18]: 7.08 µM
- GI50 [19]: 2.15 µM
- TGI [19]: 4.87 µM
- GI50 [20]: 2.11 µM
- TGI [20]: 5.75 µM
- GI50 [21]: 6.47 µM
- TGI [21]: > 10 µM
- GI50 [22]: > 10 µM
- TGI [22]: > 10 µM
- GI50 [23]: 1.84 µM
- TGI [23]: 3.62 µM
- GI50 [24]: 3.31 µM
- TGI [24]: 8.86 µM
- GI50 [25]: 3.15 µM
- TGI [25]: > 10 µM
- GI50 [26]: 2.38 µM
- TGI [26]: 4.79 µM
- GI50 [27]: 9.28 µM
- TGI [27]: > 10 µM
- GI50 [28]: 3.84 µM
- TGI [28]: > 10 µM
- GI50 [29]: > 10 µM
- TGI [29]: > 10 µM
- GI50 [30]: > 10 µM
- TGI [30]: > 10 µM
- GI50 [31]: 5.12 µM
- TGI [31]: > 10 µM
- GI50 [32]: 2.04 µM
- TGI [32]: 6.13 µM
- GI50 [33]: > 10 µM
- TGI [33]: > 10 µM
- GI50 [34]: 7.62 µM
- TGI [34]: > 10 µM
- GI50 [35]: > 10 µM
- TGI [35]: > 10 µM
- GI50 [36]: 7.39 µM
- TGI [36]: > 10 µM
- GI50 [37]: 3.18 µM
- TGI [37]: 7.72 µM
- GI50 [38]: 3.04 µM
- TGI [38]: 8.55 µM
- GI50 [39]: 2.77 µM
- TGI [39]: 6.1 µM
- GI50 [40]: 4.57 µM
- TGI [40]: > 10 µM
- GI50 [41]: > 10 µM
- TGI [41]: > 10 µM
- GI50 [42]: 3.87 µM
- TGI [42]: 9.48 µM
- GI50 [43]: 2.77 µM
- TGI [43]: 7.99 µM
- GI50 [44]: 1.94 µM
- TGI [44]: > 10 µM
- GI50 [45]: 4.9 µM
- TGI [45]: > 10 µM
- GI50 [46]: 6.19 µM
- TGI [46]: > 10 µM
- GI50 [47]: 3.44 µM
- TGI [47]: > 10 µM
- GI50 [48]: 6.95 µM
- TGI [48]: > 10 µM
- GI50 [49]: 3.09 µM
- TGI [49]: 9.16 µM
- GI50 [50]: 6.48 µM
- TGI [50]: > 10 µM
- GI50 [51]: 2.6 µM
- TGI [51]: 6.38 µM
- GI50 [52]: 3.3 µM
- TGI [52]: 9.03 µM
- GI50 [53]: 2.64 µM
- TGI [53]: 5.43 µM
- GI50 [54]: 8.49 µM
- TGI [54]: > 10 µM
- GI50 [55]: > 10 µM
- TGI [55]: > 10 µM
- GI50 [56]: > 10 µM
- TGI [56]: > 10 µM
